Literature values as cited in patent publication US20070135435A1, “Certain chemical entities, compositions, and methods” (priority 2005, published 2007).

System: A549 cells

Row | GI50 | SMILES
1 | 63 nM | COc1cccc2c1C(=O)c1c(O)c3c(c(O)c1C2=O)C[C@@](O)(C(=O)CO)C[C@@H]3O[C@H]1C[C@H](N)[C@H](O)[C@H](C)O1 [doxorubicin]
2 | 1000 nM | O=c1[nH]cc(F)c(=O)[nH]1 [5-fluorouracil]
3 | 500000 nM | NC(=O)NO [hydroxyurea]
4 | 4 nM | CC(=O)O[C@H]1C(=O)[C@@]2(C)[C@H]([C@H](OC(=O)c3ccccc3)[C@]3(O)C[C@H](OC(=O)[C@H](O)[C@@H](NC(=O)c4ccccc4)c4ccccc4)C(C)=C1C3(C)C)[C@]1(OC(C)=O)CO[C@@H]1C[C@@H]2O [paclitaxel]
